We go through eight compounds from ChEMBL document CHEMBL4622898, “Synthesis, in vitro ADME profiling and in vivo pharmacological evaluation of novel glycogen phosphorylase inhibitors” (Bioorg Med Chem Lett, 2020).

For one series, the system named is HepG2. Put plainly: Inhibition of glycogenolysis in human HepG2 cells assessed as GCN-stimulated glycogen breakdown after 5 mins. The series is classed as functional, cell-based. The settings on record: HepG2, 5 min.
Series [1] can be described thus: Clearance in mouse liver microsomes. The format is ADME, Microsome. On the technique in general: Liver microsomes are a subcellular fraction often used to study metabolism.
Series [2] in a line: Stability of compound in simulated intestinal fluid assessed as compound degradation measured up to 1 hr. The format is physicochemical. As to conditions: simulated gi fluid.
Series [3] is described as follows: Lipophilicity, log D of the compound in 1-Octanol-phosphate buffer at pH 7.4. The format is physicochemical.
A short description of series [4]: Stability of compound in mouse plasma assessed as compound degradation measured up to 0.5 hrs. The series is classed as ADME, cell-free.
Series [5] in a line: Inhibition of rabbit muscle Glycogen phosphorylase measured phosphate release from glucose-1-phosphate. More on the design: species or system Oryctolagus cuniculus.
Series [6] can be described thus: Stability of compound in simulated gastric fluid assessed as compound degradation measured up to 24 hrs relative to control. The settings on record: read-out: Drug degradation. The series is classed as physicochemical.
The next series can be described thus: physchem. As to conditions: buffer, pH 7.4.
A short description of series [7]: Half life in mouse liver microsomes. The series is classed as ADME, Microsome.
Series [8] in a line: Intrinsic clearance in mouse liver microsomes. The series is classed as ADME, Microsome.
A further series has as its system Hepatocyte. Put plainly: Inhibition of glycogenolysis in rat hepatocytes assessed as GCN-stimulated glycogen breakdown after 5 mins. The format is functional, cell-based.
Series [9] can be described thus: Stability of compound in simulated gastric fluid assessed as compound degradation measured up to 24 hrs. The series is classed as physicochemical. The settings on record: simulated gi fluid.
The nature of series [10]: Stability of compound in mouse plasma assessed as compound degradation measured up to 24 hrs. The series is classed as ADME, cell-free.
In series [11] the test system is Mus musculus. Kind of series: Hypoglycemic activity in adrenaline-induced diabetic mouse assessed as fasted plasma glucose level at 50 mg/kg, po measured after 60 min (reference value: 8.41 +/- 0.48). The format is functional.
Series [12] concerns Mus musculus. Put plainly: Hypoglycemic activity in adrenaline-induced diabetic mouse assessed as fasted plasma glucose level at 12.5 mg/kg, po measured immediately (reference value: 4.84 +/- 0.15). The format is functional.
Series [13] concerns Mus musculus. Put plainly: Hypoglycemic activity in adrenaline-induced diabetic mouse assessed as glucose AUC at 25 mg/kg, po measured up to 90 min (reference value: 482.63 +/- 21.01 mg/dL.min). The format is functional, organism-based. More on the design: dose 25 mg/kg, time < 1.5 hr.
Series [14] concerns Mus musculus. Put plainly: Hypoglycemic activity in adrenaline-induced diabetic mouse assessed as fasted plasma glucose level at 25 mg/kg, po measured after 30 min (reference value: 9.58 +/- 0.44). The format is functional.
The test system of series [15] is Mus musculus. Kind of series: Hypoglycemic activity in adrenaline-induced diabetic mouse assessed as glucose AUC at 12.5 mg/kg, po measured up to 90 min (reference value: 482.63 +/- 21.01 mg/dL.min). The series is classed as functional, organism-based. The arrangement: time < 1.5 hr, dose 12.5 mg/kg.
Series [16] deals with Mus musculus. Put plainly: Hypoglycemic activity in adrenaline-induced diabetic mouse assessed as fasted plasma glucose level at 25 mg/kg, po measured after 60 min (reference value: 8.41 +/- 0.48). The format is functional.
The nature of series [17]: Stability of compound in simulated intestinal fluid assessed as compound degradation measured up to 6 hrs. As to conditions: simulated gi fluid. The format is physicochemical.
Series [18] concerns Mus musculus. Put plainly: Hypoglycemic activity in adrenaline-induced diabetic mouse assessed as fasted plasma glucose level at 12.5 mg/kg, po measured after 30 min (reference value: 9.58 +/- 0.44). The format is functional.
In series [19] the test system is Mus musculus. Kind of series: Hypoglycemic activity in adrenaline-induced diabetic mouse assessed as glucose AUC at 50 mg/kg, po measured up to 90 min (reference value: 482.63 +/- 21.01 mg/dL.min). The series is classed as functional, organism-based. The arrangement: time < 1.5 hr, dose 50 mg/kg.
Series [20] concerns Mus musculus. Put plainly: Hypoglycemic activity in adrenaline-induced diabetic mouse assessed as fasted plasma glucose level at 25 mg/kg, po measured immediately (reference value: 4.84 +/- 0.15). The format is functional.
Series [21] relates to Mus musculus. Kind of series: Hypoglycemic activity in adrenaline-induced diabetic fasted mouse assessed as reduction in plasma glucose level at 12.5 to 50 mg/kg, po. The series is classed as functional, organism-based.
Series [22] deals with Mus musculus. Kind of series: Hypoglycemic activity in adrenaline-induced diabetic mouse assessed as fasted plasma glucose level at 50 mg/kg, po measured after 90 min (reference value: 7.56 +/- 0.49). The format is functional.
Series [23] has as its system Mus musculus. Kind of series: Hypoglycemic activity in adrenaline-induced diabetic mouse assessed as fasted plasma glucose level at 12.5 mg/kg, po measured after 90 min (reference value: 7.56 +/- 0.49). The series is classed as functional.
The subject of series [24] is Mus musculus. Put plainly: Hypoglycemic activity in adrenaline-induced diabetic mouse assessed as fasted plasma glucose level at 25 mg/kg, po measured after 90 min (reference value: 7.56 +/- 0.49). The series is classed as functional.
Series [25] is filed under the species Mus musculus. Put plainly: Hypoglycemic activity in adrenaline-induced diabetic mouse assessed as blood glucose level measured at 1.5 hrs (reference value: 486.15 +/- 22.65 mg/dl). The series is classed as functional.
Series [26] concerns Mus musculus. Put plainly: Hypoglycemic activity in adrenaline-induced diabetic mouse assessed as fasted plasma glucose level at 50 mg/kg, po measured immediately (reference value: 4.84 +/- 0.15). The format is functional.
The subject of series [27] is Mus musculus. Put plainly: Hypoglycemic activity in adrenaline-induced diabetic mouse assessed as fasted plasma glucose level at 12.5 mg/kg, po measured after 60 min (reference value: 8.41 +/- 0.48). The series is classed as functional.
The test system of series [28] is Mus musculus. Kind of series: Hypoglycemic activity in adrenaline-induced diabetic mouse assessed as fasted plasma glucose level at 50 mg/kg, po measured after 30 min (reference value: 9.58 +/- 0.44). The format is functional.
Series [29] relates to Mus musculus. Put plainly: Hypoglycemic activity in adrenaline-induced diabetic mouse assessed as fasted plasma glucose level at 200 mg/kg, po measured after 90 min (reference value: 7.56 +/- 0.49). The series is classed as functional.
For series [30], the system named is Mus musculus. Kind of series: Hypoglycemic activity in adrenaline-induced diabetic mouse assessed as glucose AUC at 200 mg/kg, po measured up to 90 min (reference value: 482.63 +/- 21.01 mg/dL.min). The series is classed as functional, organism-based. The arrangement: dose 200 mg/kg, time < 1.5 hr.
The test system of series [31] is Mus musculus. Kind of series: Hypoglycemic activity in adrenaline-induced diabetic mouse assessed as fasted plasma glucose level at 200 mg/kg, po measured immediately (reference value: 4.84 +/- 0.15). The series is classed as functional.
Series [32] concerns Mus musculus. Put plainly: Hypoglycemic activity in adrenaline-induced diabetic mouse assessed as fasted plasma glucose level at 200 mg/kg, po measured after 30 min (reference value: 9.58 +/- 0.44). The format is functional.
Series [33] concerns Mus musculus. Put plainly: Hypoglycemic activity in adrenaline-induced diabetic mouse assessed as fasted plasma glucose level at 200 mg/kg, po measured after 60 min (reference value: 8.41 +/- 0.48). The format is functional.
The nature of series [34]: Inhibition of recombinant human liver glycogen phosphorylase a expressed in baculovirus-infected Sf9 cells using glucose-1-phosphate as substrate in presence of 7.5 mM glucose.
Series [35] can be described thus: Aqueous solubility of compound. The series is classed as physicochemical. As to conditions: buffer.

Each structure is given as a SMILES string. Converted amounts (≈) assume the structure as drawn. The source made the active and inactive calls. Where only a bound is given, the exact number is not on record here.

Description for physchem: Kinetic solubility of compound at pH 7.4 by high-throughput kinetic solubility assay

On to `COC(=O)CNC(=O)[C@H](Cc1ccccc1)NC(=O)c1cc2cc(Cl)ccc2[nH]1`, for which the figures for the IC50 (with HepG2; in series [5]; in the series with Hepatocyte) were 0.661 µM, 0.0487 µM and 0.72 µM, respectively. The CLint scaled (usually a measure of how fast metabolising enzymes remove a compound, apart from limits set by blood flow) in series [1] is 356 mL/min/kg. Besides, the Stability result in [2] and in [4] was “Unstable” throughout. Further, in series [3], the logD (usually lipophilicity at a set pH, counting ionised and neutral species) came out at 3.95. Further, the degraded at 24 h in series [6] is 50%. Besides, the kinetic solubility (as a rule, the concentration staying in solution when a stock, usually in DMSO, is diluted into the medium) in the series “physchem” was 1.89 µM (≈ 0.782 µg/mL). In addition, the half-life (commonly the time needed for the level to fall by half in the phase considered) in [7] was 15.4 min. For the same compound, in series [8], the CLint came out at 90 µL/min/mg.

For the compound `NC(=O)[C@@H](Cc1ccccc1)NC(=O)CNC(=O)c1cc2cc(Cl)ccc2[nH]1`, the IC50 – broadly, the concentration that inhibits the measured activity by half – worked out at 6.47 µM in the series with HepG2, 0.555 µM in [5] and 7.65 µM in the series on Hepatocyte. In addition, the CLint scaled in [1] is below 38 mL/min/kg. For the same compound, the Stability entry in series [2] is on record as “Unstable”; in [9] it was “Stable”; in series [10], “Stable”. Also, the logD in [3] stood at 3.32. For the same compound, in the series “physchem”, the kinetic solubility is 36.8 µM (≈ 14.7 µg/mL). Also, in series [7], the half-life was above 145 min. The CLint in series [8] was below 9.6 µL/min/mg.

Regarding `O=C(N[C@@H](Cc1ccc(O)cc1)c1nc2ccccc2[nH]1)c1cc2cc(Cl)ccc2[nH]1`, the IC50 in the series on HepG2 stood at 8.39 µM; in [5], 0.578 µM; with Hepatocyte it was 9.46 µM.

As to `O=C(O)CNC(=O)[C@H](Cc1ccccc1)NC(=O)c1cc2cc(Cl)ccc2[nH]1`, the IC50 in the series with HepG2 is 3.24 µM; in [5], 0.289 µM; in the series with Hepatocyte it was 7.15 µM. The compound further displayed a CLint scaled in series [1] below 38 mL/min/kg. The plasma glucose with Mus musculus [11] came to 6.83 mM; in the series on Mus musculus [14], 9.52 mM; in the series with Mus musculus [16] it was 7.62 mM; in the series on Mus musculus [18], 8.92 mM; with Mus musculus [22], 6.05 mM; in the series with Mus musculus [23], 7.47 mM. In addition, the plasma glucose was 6.7 mM in the series with Mus musculus [24], 7.4 mM in the series with Mus musculus [27] and 9.03 mM in the series with Mus musculus [28]. The OD with Mus musculus [12] worked out at 4.89; with Mus musculus [20] it was 4.85; with Mus musculus [26], 4.86. Moreover, the AUC was 451 mg/dL×min in the series with Mus musculus [13], 449 mg/dL×min in the series on Mus musculus [15] and 416 mg/dL×min with Mus musculus [19]. Besides, the Stability result is “Stable” in series [2], “Stable” in series [9], “Unstable” in series [17] and “Stable” in series [10]. The logD in series [3] worked out at 0.72. Further, the result in the series on Mus musculus [21] was Active. The compound also gave a kinetic solubility in the series “physchem” of 188 µM (≈ 75.1 µg/mL). The Activity in the series filed under Mus musculus [25] came to 446.25 mg/dL. Besides, the half-life in series [7] was above 145 min. Also, in series [8], the CLint was below 9.6 µL/min/mg.

On to `CN(C)C(=N)NC(=N)N` [METFORMIN], for which the OD came to 5 in the series on Mus musculus [29] and 4.76 with Mus musculus [31]. Besides, in the series on Mus musculus [30], the AUC turned out to be 374 mg/dL×min. Besides, the plasma glucose was 8.85 mM in the series with Mus musculus [32] and 5.79 mM in the series with Mus musculus [33].

`O=C(O)Cc1ccccc1Nc1c(Cl)cccc1Cl` [DICLOFENAC] displayed a CLint scaled in [1] of 203 mL/min/kg. In series [7], the half-life stood at 27.1 min. For the same compound, the CLint in series [8] amounted to 51.2 µL/min/mg.

As to `CN(C)C(=O)[C@H](O)[C@H](Cc1ccccc1)NC(=O)c1cc2cc(Cl)ccc2[nH]1`, the IC50 in the series with HepG2 stood at 3.31 µM; in [34], 0.11 µM; in series [5], 0.0922 µM; with Hepatocyte, 3.17 µM. The solubility (commonly how much of the substance goes into solution per volume) in series [35] is below 1000 µg/mL.

`CN(C)CCCN1c2ccccc2Sc2ccc(Cl)cc21` [CHLORPROMAZINE] yielded a logD in series [3] of 3.23.
